# Where “and” joins values, the source holds several entries; their conditions need not be identical. Identical values can stand only once.
# Columns and labels:
# Experiment in all cases: ≥ marks a high value that may be exact or a test limit, other limits are often not marked, values filed in µg/mL are converted to µM
# [1] = test system: Staphylococcus aureus ATCC 29213
# [2] = test system: Pseudomonas aeruginosa ATCC 27853
# [3] = test system: Klebsiella pneumoniae ATCC 700603
# [4] = test system: Staphylococcus aureus ATCC 700699
# [5] = test system: Staphylococcus aureus ATCC 33591
# [6] = test system: Escherichia coli ATCC 25922
# [7] = test system: Enterococcus faecalis 981
# [8] = test system: Nocardia asteroides 201118
# [9] = test system: Staphylococcus aureus ATCC 25923
# [10] = test system: Candida glabrata 090902
# [11] = test system: Escherichia coli DH5alpha
# [12] = test system: Escherichia coli ATCC 10536
# [13] = test system: Staphylococcus aureus ATCC 9144
# [14] = test system: Bacillus subtilis ATCC 6633
# [15] = test system: Candida albicans SC5314
# [16] = test system: Candida albicans ATCC 90028
# [17] = test system: Candida krusei ATCC 6258
# [18] = test system: Candida parapsilosis ATCC 22019
MIC [1] [µM],MIC [2] [µM],MIC [3] [µM],MIC [4] [µM],MIC [5] [µM],MIC [6] [µM],MIC [11] [µM],MIC [12],MIC [13] [µM],SMILES,other results
> 100,> 100,> 100,≥ 100,≥ 100,> 100,,,,CC[C@H](C)[C@H](NC(=O)[C@H](CC(=O)O)NC(=O)[C@H](CCCCN)NC(=O)[C@H](C)NC(=O)[C@H](C)NC(=O)CNC(=O)[C@H](CCCCN)NC(=O)[C@H](CC(C)C)NC(=O)[C@@H](NC(=O)[C@H](CC(=O)O)NC(=O)[C@@H](NC(=O)[C@@H](NC(=O)[C@H](C)N)C(C)C)C(C)C)[C@@H](C)CC)C(=O)N[C@@H](C)C(=O)NCC(=O)N[C@@H](Cc1cnc[nH]1)C(=O)N[C@@H](CC(C)C)C(=O)N[C@@H](C)C(=O)N[C@@H](CO)C(=O)N[C@@H](CCCCN)C(=O)N[C@H](C(=O)N[C@@H](CCSC)C(=O)N[C@@H](CC(N)=O)C(=O)N[C@@H](CCCCN)C(=O)N[C@@H](CC(C)C)C(N)=O)C(C)C [AVVDILKGAAKDIAGHLASKVMNKL],
,,,,,,,,,CC(C)C[C@H](NC(=O)[C@H](CC(C)C)NC(=O)CNC(=O)[C@H](CO)NC(=O)[C@H](CC(C)C)NC(=O)[C@H](CC(C)C)NC(=O)[C@H](CCCCN)NC(=O)CNC(=O)[C@@H](NC(=O)[C@H](Cc1ccccc1)NC(=O)[C@@H]1CCCN1C(=O)[C@H](CC(C)C)NC(=O)[C@@H](N)Cc1ccccc1)C(C)C)C(N)=O [FLPFVGKLLSGLL],MIC [7]: 25 µM; MIC [8]: 12.5 µM; MIC [9]: 12.5 µM; MIC [10]: ≥ 100 µM
,,,,,,2.6,2.3 µM,3.2,CC[C@H](C)[C@H](NC(=O)[C@H](CCCN=C(N)N)NC(=O)[C@@H](NC(=O)[C@@H](NC(=O)[C@@H]1CCCN1C(=O)[C@@H](NC(=O)[C@@H](NC(=O)[C@@H](NC(=O)[C@@H]1CCCN1C(=O)CNC(=O)[C@H](Cc1ccc(O)cc1)NC(=O)[C@H](CCCCN)NC(=O)[C@H](CCCCN)NC(=O)[C@H](Cc1c[nH]c2ccccc12)NC(=O)[C@H](C)NC(=O)[C@H](CCCN=C(N)N)NC(=O)[C@H](CC(C)C)NC(=O)[C@H](C)NC(=O)[C@H](CCCCN)NC(=O)[C@H](CCCN=C(N)N)NC(=O)CNC(=O)[C@H](CC(C)C)NC(=O)[C@H](CO)NC(=O)[C@H](CCCN=C(N)N)NC(=O)[C@H](CC(C)C)NC(=O)CNC(=O)CN)[C@@H](C)CC)[C@@H](C)CC)C(C)C)[C@@H](C)CC)[C@@H](C)CC)C(N)=O [GGLRSLGRKALRAWKKYGPIIVPIIRI],MIC [14]: 1.5 µM
,,,,,,2.9,2.9 µM and 7.3 µM,2.7,CC[C@H](C)[C@H](NC(=O)[C@@H](NC(=O)[C@@H]1CCCN1C(=O)[C@H](CO)NC(=O)[C@H](CC(C)C)NC(=O)[C@H](CCCCN)NC(=O)[C@H](CCCCN)NC(=O)[C@H](Cc1ccccc1)NC(=O)[C@H](CC(C)C)NC(=O)[C@H](CCCCN)NC(=O)[C@H](CCCCN)NC(=O)[C@H](C)NC(=O)[C@H](CCCCN)NC(=O)[C@H](CCCCN)NC(=O)[C@H](CCCN=C(N)N)NC(=O)[C@H](Cc1ccccc1)NC(=O)[C@H](CCCN=C(N)N)NC(=O)[C@H](CCCCN)NC(=O)[C@H](C)NC(=O)[C@H](CCCN=C(N)N)NC(=O)CN)C(C)C)C(=O)N1CCC[C@H]1C(=O)N[C@@H](CC(C)C)C(=O)N[C@@H](CC(C)C)C(=O)N[C@@H](Cc1cnc[nH]1)C(=O)N[C@@H](CC(C)C)C(N)=O [GRAKRFRKKAKKLFKKLSPVIPLLHL],
,,,,,,2.9,3.2 µM and 7.4 µM,2.8,CC[C@H](C)[C@H](NC(=O)[C@@H](NC(=O)[C@@H]1CCCN1C(=O)[C@H](CO)NC(=O)[C@H](CC(C)C)NC(=O)[C@H](CCCCN)NC(=O)[C@H](CCCCN)NC(=O)[C@H](Cc1ccccc1)NC(=O)[C@H](CC(C)C)NC(=O)[C@H](CCCCN)NC(=O)[C@H](CCCCN)NC(=O)[C@H](C)NC(=O)[C@H](CCCCN)NC(=O)[C@H](CCCCN)NC(=O)[C@H](CCCN=C(N)N)NC(=O)[C@H](Cc1ccccc1)NC(=O)[C@H](CCCN=C(N)N)NC(=O)[C@H](CCCCN)NC(=O)[C@H](Cc1ccccc1)NC(=O)[C@H](CCCN=C(N)N)NC(=O)CN)C(C)C)C(=O)N1CCC[C@H]1C(=O)N[C@@H](CC(C)C)C(=O)N[C@@H](CC(C)C)C(=O)N[C@@H](Cc1cnc[nH]1)C(=O)N[C@@H](CC(C)C)C(N)=O [GRFKRFRKKAKKLFKKLSPVIPLLHL],
,,,,,,,,,CC[C@H](C)[C@H](NC(=O)[C@@H](NC(=O)CN)C(C)C)C(=O)N[C@@H](CCCCN)C(=O)N[C@@H](C)C(=O)N[C@@H](C)C(=O)N[C@@H](CCCCN)C(=O)N[C@@H](CCCCN)C(=O)N[C@H](C(=O)N[C@H](C(=O)N[C@@H](CCCCN)C(=O)N[C@H](C(=O)N[C@@H](CC(C)C)C(=O)N[C@@H](CCCCN)C(=O)N[C@@H](CCCCN)C(=O)N[C@@H](CC(C)C)C(=O)N[C@@H](Cc1ccccc1)C(N)=O)C(C)C)C(C)C)C(C)C [GVIKAAKKVVKVLKKLF],MIC [15]: 17.1 µM; MIC [16]: ≥ 34.2 µM; MIC [17]: 17.1 µM; MIC [18]: 8.56 µM
,,,,,,,,,CC[C@H](C)[C@H](NC(=O)[C@@H](NC(=O)CN)C(C)C)C(=O)N[C@@H](CCCCN)C(=O)N[C@@H](C)C(=O)N[C@@H](C)C(=O)N[C@@H](CCCCN)C(=O)N[C@@H](CCCCN)C(=O)N[C@H](C(=O)N[C@H](C(=O)N[C@@H](CCCCN)C(=O)N[C@H](C(=O)N[C@@H](CC(C)C)C(=O)N[C@@H](CCCCN)C(=O)N[C@@H](CC(N)=O)C(=O)N[C@@H](CC(C)C)C(=O)N[C@@H](Cc1ccccc1)C(N)=O)C(C)C)C(C)C)C(C)C [GVIKAAKKVVKVLKNLF],MIC [15]: 17.2 µM; MIC [16]: ≥ 34.5 µM; MIC [17]: 17.2 µM; MIC [18]: 17.2 µM
100,50,25,≥ 50,25,3.12,,,,CC[C@H](C)[C@H](NC(=O)[C@H](C)NC(=O)[C@H](CCCCN)NC(=O)[C@H](C)NC(=O)[C@H](C)NC(=O)CNC(=O)[C@H](CCCCN)NC(=O)[C@H](CC(C)C)NC(=O)[C@@H](NC(=O)[C@H](CC(=O)O)NC(=O)[C@@H](NC(=O)[C@@H](NC(=O)CN)C(C)C)C(C)C)[C@@H](C)CC)C(=O)N[C@@H](C)C(=O)NCC(=O)N[C@@H](Cc1cnc[nH]1)C(=O)N[C@@H](CC(C)C)C(=O)N[C@@H](C)C(=O)N[C@@H](CO)C(=O)N[C@@H](CCCCN)C(=O)N[C@H](C(=O)N[C@@H](CCSC)C(=O)N[C@@H](CC(N)=O)C(=O)N[C@@H](CCCCN)C(=O)N[C@@H](CC(C)C)C(N)=O)C(C)C [GVVDILKGAAKAIAGHLASKVMNKL],
> 100,100,100,≥ 100,≥ 100,25,,,,CC[C@H](C)[C@H](NC(=O)[C@H](CC(=O)O)NC(=O)[C@H](CCCCN)NC(=O)[C@H](C)NC(=O)[C@H](C)NC(=O)CNC(=O)[C@H](CCCCN)NC(=O)[C@H](CC(C)C)NC(=O)[C@@H](NC(=O)[C@H](CC(=O)O)NC(=O)[C@@H](NC(=O)[C@@H](NC(=O)CN)C(C)C)C(C)C)[C@@H](C)CC)C(=O)N[C@@H](C)C(=O)NCC(=O)N[C@@H](Cc1cnc[nH]1)C(=O)N[C@@H](CC(C)C)C(=O)N[C@@H](C)C(=O)N[C@@H](C)C(=O)N[C@@H](CCCCN)C(=O)N[C@H](C(=O)N[C@@H](CCSC)C(=O)N[C@@H](CC(N)=O)C(=O)N[C@@H](CCCCN)C(=O)N[C@@H](CC(C)C)C(N)=O)C(C)C [GVVDILKGAAKDIAGHLAAKVMNKL],

# — DBAASP
